Reference: patent US12336986B2, “Treatment and prevention of ocular neurodegenerative disorder” (The Jackson Laboratory, priority 2015, dated 2025)
“Also recorded” adds a separate entry of the source.

Experiments:
[1] = system: mouse model for EAE, ALS, RRMS; settings: US 2006-0211744 A1, RRMS mouse models; cited from earlier work
DBA/2J (D2) mice [2] = test: Pattern electroretinography (PERG) in D2 mice; format: in vivo, mouse; settings: for visual function, PERG amplitude: D2 mice
Experimental: PERG was recorded subcutaneously from the snout as previously reported. Briefly: patterned stimuli (gratings of 0.05 cycles/degree, 100% contrast) generated on LED panels were presented at each eye separately with slight different frequencies around 1 Hz. Waveforms were retrieved using an asynchronous averaging method (Chou et al., Invest Ophthalmol Vis Sci 55, 2469-2475, 2014).
Mice were anaesthetized using ketamine/xylazine (Savinova et al., BMC Genet 2, 12, 2001) and body temperature maintained at 37° C. on a feedback-controlled heated stage monitored by rectal thermometer.

[3] = system: dendritic mitochondria of D2 RGCs; test: Electron microscopy of RGC dendritic mitochondria (cristae); format: in vivo, mouse; settings: D2 mice, NAM 550 mg/kg/day
Experimental: Mice were euthanized, eyes enucleated, and then fixed ON in Smith-Ruda (0.8% PFA and 1.2% gluteraldehyde in 0.1 M phosphate buffer). The cornea and lens were dissected off and the remaining posterior eye-cup (containing the retina and ONH) were post-fixed in 2% aqueous osmium tetroxide and dehydrated in ethyl alcohol. Samples were then infiltrated and flat-mounted in Embed 812/Araldite resin (Electron Microscopy Sciences) to allow en face sections. Blocks were polymerized at 60° C. for 48 hrs and 90 nm microtome sections were cut (Leica UC6, Leica) onto 300 mesh copper grids. Grids were stained with 1% aqueous uranyl acetate/Reynold's lead citrate and were viewed on a JEOL JEM 1230 TEM. Images were collected on an AMT 2K camera.

D2 retinas = test: Metabolic phenotyping of retina: total NAD, NAD(t) (NAD+/NADH); format: in vivo, mouse
Experimental: We performed additional metabolic profiling of neural retinas from 4-, 9-, and 12-months old D2 and D2-Gpnmb^+ eyes. Metabolic profiling was performed using targeted assays following the manufacturers recommendations. The following metabolites were profiled: NAD+/NADH (i.e. total NAD, NAD(t)), GSH/GSSG (i.e. total glutathione, glutathione(t)), and pyruvate.
For GSH/GSSO and NAD^+/NADH quantification retinas were dissociated (as above) and compounds measured following the manufacturer's instructions (GSH/GSSG, Cayman Chemical; NAD^+/NADH, Biovision). Results were calculated according to the standard curve generated by using standards from the kits. Final metabolite concentrations for each samples were normalized to total protein concentration measured by Bradford assay.

DBA/2J (D2) mice [4] = test: Clinical phenotyping: intraocular pressure (IOP) and iris disease in D2 mice; format: in vivo, mouse
Experimental: IOP elevation in D2 mice is subsequent to a pigment dispersing iris disease. In all experiments, the progression of the iris disease and intraocular pressure in mutant or drug-treated mice was compared to control D2 mice as previously described (John et al., Invest Ophthalmol Vis Sci 39, 951-962, 1998). In each experiment, iris disease and intraocular pressure were assessed.
Iris disease was assessed at two-month intervals starting at 6 months of age until experiment completion.
Intraocular pressure was measured at 45-day intervals beginning at 8.5-9 month until experiment completion.

In the case of `NC(=O)c1cccnc1` [NAM, nicotinamide], the neural degeneration [1] is listed as “reduces neural degeneration”, the PERG amplitude (DBA/2J (D2) mice [2]; D2 Wld^S mice, NAM 550 mg/kg/day) is listed as “additional recovery of PERG amplitude” and the “visual function, PERG amplitude” value (DBA/2J (D2) mice [2]; NAM^Hi 2,000 mg/kg/day) is listed as “protect”. The “visual function, PERG amplitude” value (DBA/2J (D2) mice [2]; NAM^Lo 550 mg/kg/day or pyruvate 500 mg/kg/day) was “restored; also recorded: protect PERG even in aged mice”, the “mitochondrial dysfunction / abnormal cristae in dendritic mitochondria (EM)” value [3] was “sufficient to inhibit the formation of dysfunctional mitochondria; also recorded: prevents early mitochondrial dysfunction” and the “NAD(t) levels in retina” value (D2 retinas; D2 Wld^S mice treated with NAM 550 mg/kg/day) was “synergistic; also recorded: additional benefit”. For the same compound, the “NAD(t) levels in retina” value (D2 retinas; D2 mice, NAM 550 mg/kg/day in drinking water, through to 12-month) was “prevented the decline of NAD levels; also recorded: restored; also recorded: increased”, the IOP (DBA/2J (D2) mice [4]; NAM 550 mg/kg/d) was “did not alter IOP; also recorded: IOP was not altered” and the “degree of IOP elevation” value (DBA/2J (D2) mice [4]; NAM 2000 mg/kg/d) was “lessens the degree of IOP elevation”.
